Measured values: patent publication US20120129843A1, “PYRIDYL-THIAZOLYL INHIBITORS OF PRO-MATRIX METALLOPROTEINASE ACTIVATION” (priority 2010, published 2012)
Structures can show the parent of a compound that is named as a salt.

Experiments:
[1] = target: T1, full-length proMMP9(1-707) (SEQ ID NO:1), activation by catalytic MMP3 (Homo sapiens, UniProt P14780, R574P); assay: proMMP9/MMP3 P126 Activation Assay; format: biochemical
T1 construct: made in house; host or cells: HEK293 (proMMP9, secreted); E. coli (MMP3)
Description: proMMP9/MMP3 P126 Activation Assay
The reaction volume was 50 μL. […] Reactivity of residual MMP3 towards P-126 substrate was minimal under these conditions.

[2] = target: T2, proMMP9(67-444;ΔFnII) (SEQ ID NO:5) (Homo sapiens, UniProt P14780, DEL216-390); assay: ThermoFluor binding assay with proMMP9(67-444;ΔFnII)
T2 construct: start methionine (N); made in house; host or cells: E. coli BL21(DE3) RIL
T2 sequence (P14780 with tags, fused parts or gaps DEL216-390): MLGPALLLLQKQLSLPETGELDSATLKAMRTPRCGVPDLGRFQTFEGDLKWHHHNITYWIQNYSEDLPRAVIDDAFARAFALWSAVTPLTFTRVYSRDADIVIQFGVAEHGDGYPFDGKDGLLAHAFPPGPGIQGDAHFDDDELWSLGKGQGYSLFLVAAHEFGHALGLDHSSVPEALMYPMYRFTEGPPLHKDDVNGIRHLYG
Description: (§1) The ThermoFluor® (TF) assay is a 384-well plate-based binding assay that measures thermal stability of proteins (Biomol Screen 2001, 6, 429-40; Biochemistry 2005, 44, 5258-66). The experiments were carried out using instruments available from Johnson & Johnson Pharmaceutical Research & Development, LLC. TF dye used in all experiments was […] (1,8-ANS) (Invitrogen: A-47).
(§2) Compounds were arranged in a pre-dispensed plate (Greiner Bio-one: 781280), wherein compounds were serially diluted in 100% DMSO across 11 columns within a series. Columns 12 and 24 were used as DMSO reference and contained no compound. For multiple compound concentration-response experiments, the compound aliquots ([…]) were robotically predispensed directly into black 384-well polypropylene PCR microplates (Abgene: TF-0384/k) using a Cartesian Hummingbird liquid handler (DigiLab, Holliston, Mass.). Following compound dispense, protein and dye solutions were added to achieve the final assay volume of 3 μL. The assay solutions were overlayed with 1 μL of silicone oil (Fluka, type DC 200: 85411) to prevent evaporation.
(§3) Assay plates were robotically loaded onto a thermostatically controlled PCR-type thermal block and then heated from 40 to 90° C. at a ramp-rate of 1° C./min for all experiments. Fluorescence was measured by continuous illumination with UV light (Hamamatsu LC6) supplied via fiber optics and filtered through a band-pass filter (380-400 nm; >60D cutoff). Fluorescence emission of the entire 384-well plate was detected by measuring light intensity using a CCD camera (Sensys, Roper Scientific) filtered to detect 500±25 nm, resulting in simultaneous and independent readings of all 384 wells. A single image with 20-sec exposure time was collected at each temperature, and the sum of the pixel intensity in a given area of the assay plate was recorded vs temperature and fit to standard equations to yield the Tm (J Biomol Screen 2001, 6, 429-40).
(§4) Thermodynamic parameters necessary for fitting compound binding for each proMMP were estimated by differential scanning calorimetry (DSC) and from ThermoFluor® data. The heat capacity of unfolding for each protein was estimated from the molecular weight and from ThermoFluor® dosing data.
ThermoFluor® with proMMP9(67-444;ΔFnII) (SEQ ID NO:5)
The protein sample preparations had to include a desalting buffer exchange step via a PD-10 gravity column (GE Healthcare). The desalting buffer exchange was performed prior to diluting the protein to the final assay concentration of 3.5 μM proMMP9(67-444;ΔFnII) (SEQ ID NO:5). The concentration of proMMP9(67-444;ΔFnII) (SEQ ID NO:5) was determined spectrophotometrically based on a calculated extinction coefficient of ε280=33900 M^−1cm^−1, a calculated molecular weight of 22.6 kDa, and calculated pI of 5.20. ThermoFluor® reference conditions were defined as follows: 80 μg/mL (3.5 μM) proMMP9(67-444;ΔFnII) (SEQ ID NO:5), 50 μM 1,8-ANS, pH 7.0 Buffer (50 mM HEPES pH 7.0, 100 mM NaCl, 0.001% Tween-20, 2.5 mM MgCl2, 300 μM CaCl2). The thermodynamic parameters for proMMP9(67-444;ΔFnII) (SEQ ID NO:5) are as follows: Tm (° C.)=63 (+/−0.1), ΔUH(Tm) (cal mol^−1)=105000(+/−5000), ΔUS(Tm) (cal mol^−1 K^−1)=[…], ΔUCp (cal mol^−1 K^−1)=2000.

[3] = target: T3, proMMP9(20-445;ΔFnII) (SEQ ID NO:6) (Homo sapiens, UniProt P14780, DEL216-390); assay: ThermoFluor binding assay with proMMP9(20-445;ΔFnII)
T3 construct: start methionine (N); made in house; host or cells: E. coli BL21(DE3) RIL
T3 sequence (P14780 with tags, fused parts or gaps DEL216-390): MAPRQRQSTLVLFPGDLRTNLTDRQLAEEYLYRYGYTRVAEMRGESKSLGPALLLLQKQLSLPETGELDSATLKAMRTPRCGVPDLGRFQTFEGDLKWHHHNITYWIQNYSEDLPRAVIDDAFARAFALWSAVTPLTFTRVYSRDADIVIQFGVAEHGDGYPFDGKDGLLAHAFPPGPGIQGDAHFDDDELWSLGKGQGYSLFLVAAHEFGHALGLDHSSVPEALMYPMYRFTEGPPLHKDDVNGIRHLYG
Description: as §1, §2, §3, §4
ThermoFluor® with proMMP9(20-445;ΔFnII) (SEQ ID NO:6)
The protein sample preparations included a desalting buffer exchange step via a PD-10 gravity column (GE Healthcare). The desalting buffer exchange was performed prior to diluting the protein to the final assay concentration of 2.8 μM proMMP9(20-445;ΔFnII) (SEQ ID NO:6). The concentration of proMMP9(20-445;ΔFnII) (SEQ ID NO:6) was determined spectrophotometrically based on a calculated extinction coefficient of ε280=39880 M^−1cm^−1, a calculated molecular weight of 28.2 kDa, and calculated pI of 5.5. ThermoFluor® reference conditions were define as follows: 80 μg/mL (2.8 μM) proMMP9(20-445;ΔFnII) (SEQ ID NO:6), 50 μM 1,8-ANS, pH 7.0 Buffer (50 mM HEPES pH 7.0, 100 mM NaCl, 0.001% Tween-20, 2.5 mM MgCl2, 300 μM CaCl2). The thermodynamic parameters for proMMP9(20-445;ΔFnII) (SEQ ID NO:6) are as follows: Tm (° C.)=72 (+/−0.1), ΔUH(Tm) (cal mol^−1)=160000(+/−5000), ΔUS(Tm) (cal mol^−1 K^−1)=434, ΔUCp (cal mol^−1 K^−1)=2400.

T1 sequence (P14780 20-707 R574P): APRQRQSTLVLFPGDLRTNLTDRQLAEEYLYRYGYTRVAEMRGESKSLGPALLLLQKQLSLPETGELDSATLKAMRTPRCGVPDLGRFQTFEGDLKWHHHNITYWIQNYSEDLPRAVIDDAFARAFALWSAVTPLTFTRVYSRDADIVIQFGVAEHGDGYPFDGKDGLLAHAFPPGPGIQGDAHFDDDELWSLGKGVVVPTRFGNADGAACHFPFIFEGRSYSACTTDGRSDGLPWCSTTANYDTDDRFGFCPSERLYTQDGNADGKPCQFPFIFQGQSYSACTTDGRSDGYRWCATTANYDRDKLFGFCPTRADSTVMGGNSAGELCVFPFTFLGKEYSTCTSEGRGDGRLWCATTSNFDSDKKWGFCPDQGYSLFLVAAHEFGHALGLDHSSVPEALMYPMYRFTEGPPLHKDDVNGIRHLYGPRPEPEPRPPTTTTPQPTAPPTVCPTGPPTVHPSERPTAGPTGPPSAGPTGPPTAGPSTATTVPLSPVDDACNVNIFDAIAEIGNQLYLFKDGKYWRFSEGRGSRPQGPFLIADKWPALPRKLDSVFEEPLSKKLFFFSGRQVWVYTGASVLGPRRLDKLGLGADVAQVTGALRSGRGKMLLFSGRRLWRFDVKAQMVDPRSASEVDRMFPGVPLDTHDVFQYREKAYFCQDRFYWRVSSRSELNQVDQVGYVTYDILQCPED

Row | Structure (SMILES) | IC50 [1] [nM] | Kd [2] [nM] | Kd [3] [nM]
1 | CN1CCN(c2ccc(-c3csc(Nc4cc(S(N)(=O)=O)ccc4OC(F)(F)F)n3)cn2)CC1 [Example 30, 3-{4-[6-(4-Methyl-piperazin-1-yl)-pyridin-3-yl]-thiazol-2-ylamino}-4-trifluoromethoxy-benzenesulfonamide] | 750 | 690 | 430
2 | CN1CCN(c2ccc(-c3csc(Nc4cc(C(N)=O)ccc4OC(F)(F)F)n3)cn2)CC1 [Example 31, 3-{4-[6-(4-Methyl-piperazin-1-yl)-pyridin-3-yl]-thiazol-2-ylamino}-4-trifluoromethoxy-benzamide] | 640 | 610 | 110
3 | COc1ccc(C(N)=O)cc1Nc1nc(-c2ccc(N3CCN(C)CC3)nc2)cs1 [Example 32, 4-Methoxy-3-{4-[6-(4-methyl-piperazin-1-yl)-pyridin-3-yl]-thiazol-2-ylamino}-benzamide] | 840 | 2300 | 360
4 | CC(C)Oc1ccc(S(N)(=O)=O)cc1Nc1nc(-c2ccc(N3CCN(C)CC3)nc2)cs1 [Example 33, 4-Isopropoxy-3-{4-[6-(4-methyl-piperazin-1-yl)-pyridin-3-yl]-thiazol-2-ylamino}-benzenesulfonamide.HCl] | 140 | 120 | 46
5 | CCN1CCN(c2ccc(-c3csc(Nc4cc(S(N)(=O)=O)ccc4OC(C)C)n3)cn2)CC1 [Example 38, 4-Isopropoxy-3-{4-[6-(4-ethyl-piperazin-1-yl)-pyridin-3-yl]-thiazol-2-ylamino}-benzenesulfonamide.TFA] | 170 | 380 | 73
6 | CC(C)Oc1ccc(S(N)(=O)=O)cc1Nc1nc(-c2ccc(N3CCN(C(C)C)CC3)nc2)cs1 [Example 39, 4-Isopropoxy-3-{4-[6-(4-isopropyl-piperazin-1-yl)-pyridin-3-yl]-thiazol-2-ylamino}-benzenesulfonamide.TFA] | 87 | 170 | 70
7 | CC(C)Oc1ccc(S(N)(=O)=O)cc1Nc1nc(-c2ccc(N3CCCN(C)CC3)nc2)cs1 [Example 40, 4-Isopropoxy-3-{4-[6-(4-methyl-[1,4]diazepan-1-yl)-pyridin-3-yl]-thiazol-2-ylamino}-benzenesulfonamideamide.TFA] | 87 | 330 | 44
8 | CC(C)Oc1ccc(S(N)(=O)=O)cc1Nc1nc(-c2ccc(NCCN(C)C)nc2)cs1 [Example 42, 3-(4-{6-[(2-Dimethylamino-ethyl)-amino]-pyridin-3-yl}-thiazol-2-ylamino)-4-isopropoxy-benzenesulfonamide.TFA] | 150 | 680 | 130
9 | CC(C)Oc1ccc(S(N)(=O)=O)cc1Nc1nc(-c2ccc(N3CCNCC3)nc2)cs1 [Example 44, 4-Isopropoxy-3-[4-(6-piperazin-1-yl-pyridin-3-yl)-thiazol-2-ylamino]-benzenesulfonamide.TFA] | 73 | 130 | 48
10 | CC(C)Oc1ccc(S(N)(=O)=O)cc1Nc1nc(-c2ccc(C(=O)O)nc2)cs1 [Example 45, 5-[2-(2-Isopropoxy-5-sulfamoyl-phenylamino)-thiazol-4-yl]-pyridine-2-carboxylic acid.HCl] | 370 | 3700 | 470

Continued by falling IC50 [1], values first:

Row | IC50 [1] [nM] | Kd [2] [nM] | Kd [3] [nM] | Structure (SMILES)
11 | 2300 | 7200 | 1300 | CN1CCN(c2cc(-c3csc(Nc4cc(C(N)=O)ccc4OC(F)(F)F)n3)ccn2)CC1 [Example 36, 3-{4-[2-(4-Methyl-piperazin-1-yl)-pyridin-4-yl]-thiazol-2-ylamino}-4-trifluoromethoxy-benzamide.TFA]
12 | ~2000 | 2400 | 1300 | CC(C)Oc1ccc(S(N)(=O)=O)cc1Nc1nc(-c2ccc(N3CCOCC3)nc2)cs1 [Example 37, 4-Isopropoxy-3-[4-(6-morpholin-4-yl-pyridin-3-yl)-thiazol-2-ylamino]-benzenesulfonamide.TFA]
13 | 1300 | 6600 | 1300 | CC(C)Oc1ccc(S(N)(=O)=O)cc1Nc1nc(-c2ccc(C(=O)N3CCN(C)CC3)nc2)cs1 [Example 46, 4-Isopropoxy-3-{4-[6-(4-methyl-piperazine-1-carbonyl)-pyridin-3-yl]-thiazol-2-ylamino}-benzenesulfonamide.TFA]
14 | 1100 | 1500 | 180 | NC(=O)c1ccc(OC(F)(F)F)c(Nc2nc(-c3ccnc(Cl)c3)cs2)c1 [Example 34, 3-[4-(2-Chloro-pyridin-4-yl)-thiazol-2-ylamino]-4-trifluoromethoxy-benzamide.TFA]
15 | 200 | 1700 | 120 | CC(C)Oc1ccc(S(N)(=O)=O)cc1Nc1nc(-c2ccc(N(C)CCN(C)C)nc2)cs1 [Example 43, 3-(4-{6-[(2-Dimethylamino-ethyl)-methyl-amino]-pyridin-3-yl}-thiazol-2-ylamino)-4-isopropoxy-benzenesulfonamide.TFA]
16 | 110 | 460 | 190 | CC(C)Oc1ccc(S(N)(=O)=O)cc1Nc1nc(-c2ccnc(N3CCN(C)CC3)c2)cs1 [Example 35, 4-Isopropoxy-3-{4-[2-(4-methyl-piperazin-1-yl)-pyridin-4-yl]-thiazol-2-ylamino}-benzenesulfonamide.TFA]
17 | 59 | 220 | 51 | CC(C)Oc1ccc(S(N)(=O)=O)cc1Nc1nc(-c2ccc(N3CCC(N(C)C)CC3)nc2)cs1 [Example 41, 3-[4-(4-Dimethylamino-3,4,5,6-tetrahydro-2H-[1,2′]bipyridinyl-5′-yl)-thiazol-2-ylamino]-4-isopropoxy-benzenesulfonamide.TFA]
